# Experimental data as given in patent US20110230477A1, “COMPOUNDS, PHARMACEUTICAL COMPOSITION AND METHODS FOR USE IN TREATING METABOLIC DISORDERS” (Euroscreen S.A., priority 2008, published 2011).
# Target: T1, human GPR43 receptor (hGPR43) (Homo sapiens, UniProt O15552)
# T1 construct: expressed in transfected cells
# T1 sequence (O15552 1-330): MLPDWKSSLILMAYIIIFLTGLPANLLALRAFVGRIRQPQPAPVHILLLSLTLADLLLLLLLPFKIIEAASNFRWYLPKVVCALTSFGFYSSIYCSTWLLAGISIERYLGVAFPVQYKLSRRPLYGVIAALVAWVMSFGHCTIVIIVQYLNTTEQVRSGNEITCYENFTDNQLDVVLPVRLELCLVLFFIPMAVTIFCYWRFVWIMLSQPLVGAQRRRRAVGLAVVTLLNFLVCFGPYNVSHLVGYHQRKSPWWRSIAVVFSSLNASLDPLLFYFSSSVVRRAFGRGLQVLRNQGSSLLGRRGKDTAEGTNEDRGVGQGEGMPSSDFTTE
# Assay: GTPγS binding assay (SPA method)
# Type: biochemical
# Conditions: membranes expressing hGPR43; assay performed in the presence of SCFA; read-out: EC50 (nM) in GTPγ35S assay
# Source text: The following assay can be used for determination of GPR43 activation. When a GPCR is in its active state, either as a result of ligand binding or constitutive activation, the receptor couples to a G protein and stimulates the release of GDP and subsequent binding of GTP to the G protein. The alpha subunit of the G protein-receptor complex acts as a GTPase and slowly hydrolyses the GTP to GDP, at which point the receptor normally is deactivated. Activated receptors continue to exchange GDP for GTP. […] The assay uses the ability of GPCR to stimulate [^35S]GTPγS binding to membranes expressing the relevant receptors. The assay can, therefore, be used in the direct identification method to screen candidate compounds to endogenous or not endogenous GPCR.
# Membrane extracts were prepared from cells expressing the human GPR43 receptor (hGPR43) as follows: the medium was aspirated and the cells were scraped from the plates in Ca^++ and Mg^++-free Phosphate-buffered saline (PBS). The cells were then centrifuged for 3 min at 1500 g and the pellets were resuspended in buffer A (15 mM Tris-HCl pH 7.5, 2 mM MgCl2, 0.3 mM EDTA, 1 mM EGTA) and homogenized in a glass homogenizer. […] Protein content was assayed by the Folin method.
# The assay was performed in the presence of SCFA, and was used to determine the activity of the compounds of the invention.
# The [^35S]GTPγS assay was incubated in 20 mM HEPES pH7.4, 100 mM NaCl, 10 μg/ml saponin, 30 mM of MgCl2, 10 μM of GDP, 5 μg membrane-expressing hGPR43, 250 μg of wheatgerm agglutinin beads (Amersham, ref: RPNQ001), a range concentration of compounds (from 30 μM to 1 nM) in a final volume of 100 μl for 30 min at room temperature. The SCFA propionate was used at 1 mM final concentration as positive control. The plates were then centrifuged for 10 minutes at 2000 rpm, incubated for 2 hours at room temperature and counted for 1 min in a scintillation counter (TopCount, PerkinElmer).
row,Structure (SMILES),EC50 [nM]
1,"CN(C(=O)[C@H]1CC=CC[C@H]1C(=O)O)c1nc(-c2ccccc2Cl)cs1 (relative stereo) [Compound 100, cis-6-((4-(2-chlorophenyl)thiazol-2-yl)(methyl)carbamoyl)cyclohex-3-enecarboxylic acid]",142
2,"O=C(O)C1CC=CCC1C(=O)Nc1nc(-c2ccccc2Cl)cs1 (stereo not drawn) [Compound 1, 6-(4-(2-chlorophenyl)thiazol-2-ylcarbamoyl)cyclohex-3-enecarboxylic acid]",109
3,"O=C(O)C[C@@H](Cc1ccccc1)C(=O)Nc1nc(-c2ccccc2F)cs1 [Compound 4, (R)-3-benzyl-4-(4-(2-fluorophenyl)thiazol-2-ylamino)-4-oxobutanoic acid]",759
4,"O=C(O)C[C@@H](Cc1ccccc1)C(=O)Nc1nc(-c2ccc(Cl)c(Cl)c2)cs1 [Compound 5, (R)-3-benzyl-4-(4-(3,4-dichlorophenyl)thiazol-2-ylamino)-4-oxobutanoic acid]",292
5,"O=C(O)/C=C\C(=O)Nc1nc(-c2ccccc2Cl)cs1 [Compound 10, (Z)-4-(4-(2-chlorophenyl)thiazol-2-ylamino)-4-oxobut-2-enoic acid]",405
6,"O=C(O)C[C@@H](Cc1ccccc1)C(=O)Nc1nc(-c2cccc(C(F)(F)F)c2)cs1 [Compound 13, (R)-3-benzyl-4-oxo-4-(4-(3-(trifluoromethyl)phenyl)thiazol-2-ylamino)butanoic acid]",875
7,"O=C(O)C[C@@H](Cc1ccccc1)C(=O)Nc1ccc(-c2ccccc2Cl)cn1 [Compound 15, (R)-3-benzyl-4-(5-(2-chlorophenyl)pyridin-2-ylamino)-4-oxobutanoic acid]",426
8,"O=C(O)C[C@@H](Cc1ccc(F)cc1)C(=O)Nc1nc(-c2ccccc2Cl)cs1 [Compound 17, (R)-4-(4-(2-chlorophenyl)thiazol-2-ylamino)-3-(4-fluorobenzyl)-4-oxobutanoic acid]",643
9,"O=C(O)C[C@@H](CC1CCCCC1)C(=O)Nc1nc(-c2ccccc2Cl)cs1 [Compound 18, (R)-4-(4-(2-chlorophenyl)thiazol-2-ylamino)-3-(cyclohexylmethyl)-4-oxobutanoic acid]",104
10,"O=C(O)C[C@@H](Cc1ccccc1)C(=O)Nc1nc(-c2ccccc2Cl)c(F)s1 [Compound 20, (R)-3-benzyl-4-(4-(2-chlorophenyl)-5-fluorothiazol-2-ylamino)-4-oxobutanoic acid]",96
11,"C=CCN(C(=O)[C@@H](CC(=O)O)Cc1ccccc1)c1nc(-c2ccccc2Cl)cs1 [Compound 22, (R)-4-(allyl(4-(2-chlorophenyl)thiazol-2-yl)amino)-3-benzyl-4-oxobutanoic acid]",365
12,"CN(C(=O)[C@@H](CC(=O)O)Cc1ccccc1)c1nc(-c2ccccc2Cl)c(F)s1 [Compound 60, (R)-3-benzyl-4-((4-(2-chlorophenyl)-5-fluorothiazol-2-yl)(methyl)amino)-4-oxobutanoic acid]",95
13,"CN(C(=O)[C@@H](CC(=O)O)Cc1ccccc1)c1nc(-c2ccccc2Cl)ns1 [Compound 83, (R)-3-benzyl-4-((3-(2-chlorophenyl)-1,2,4-thiadiazol-5-yl)(methyl)amino)-4-oxobutanoic acid]",98
14,"O=C(O)C[C@@H](C(=O)Nc1nc(-c2ccccc2Cl)cs1)c1ccccc1 [Compound 92, (R)-4-(4-(2-chlorophenyl)thiazol-2-ylamino)-4-oxo-3-phenylbutanoic]",249

# Further compounds by falling EC50, results first:
row,EC50 [nM],Structure (SMILES)
1,680,"O=C(O)C[C@@H](Cc1ccccc1)C(=O)Nc1nc(-c2ccccc2)ns1 [Compound 11, (R)-3-benzyl-4-oxo-4-(3-phenyl-1,2,4-thiadiazol-5-ylamino)butanoic acid]"
2,653,"O=C(O)C[C@@H](Cc1ccccc1)C(=O)Nc1nc(-c2ccc(Cl)cc2Cl)cs1 [Compound 3, (R)-3-benzyl-4-(4-(2,4-dichlorophenyl)thiazol-2-ylamino)-4-oxobutanoic acid]"
3,567,"COc1ccc(CC(CC(=O)O)C(=O)N(C)c2nc(-c3ccccc3Cl)cs2)cc1 (stereo not drawn) [Compound 99, 4-((4-(2-chlorophenyl)thiazol-2-yl)(methyl)amino)-3-(4-methoxybenzyl)-4-oxobutanoic acid]"
4,563,"N#Cc1ccc(-c2csc(NC(=O)[C@@H](CC(=O)O)Cc3ccccc3)n2)cc1 [Compound 8, (R)-3-benzyl-4-(4-(4-cyanophenyl)thiazol-2-ylamino)-4-oxobutanoic acid]"
5,493,"O=C(O)C[C@@H](Cc1cccc(F)c1)C(=O)Nc1nc(-c2ccccc2Cl)cs1 [Compound 93, (R)-4-(4-(2-chlorophenyl)thiazol-2-ylamino)-3-(3-fluorobenzyl)-4-oxobutanoic acid]"
6,424,"O=C(O)C[C@@H](Cc1ccccc1)C(=O)Nc1nc(-c2cccc(Cl)c2)cs1 [Compound 12, (R)-3-benzyl-4-(4-(3-chlorophenyl)thiazol-2-ylamino)-4-oxobutanoic acid]"
7,389,"CCCC[C@H](CC(=O)O)C(=O)Nc1nc(-c2ccccc2Cl)cs1 [Compound 16, (R)-3-(4-(2-chlorophenyl)thiazol-2-ylcarbamoyl)heptanoic acid]"
8,354,"CN(C(=O)[C@@H](CC(=O)O)Cc1ccccc1)c1nc(-c2ccccc2C#N)cs1 [Compound 91, (R)-3-benzyl-4-((4-(2-cyanophenyl)thiazol-2-yl)(methyl)amino)-4-oxobutanoic acid]"
9,327,"COC(=O)CN(C(=O)[C@@H](CC(=O)O)Cc1ccccc1)c1nc(-c2ccccc2Cl)cs1 [Compound 23, (R)-3-benzyl-4-((4-(2-chlorophenyl)thiazol-2-yl)(2-methoxy-2-oxoethyl)amino)-4-oxobutanoic acid]"
10,322,"CC(C)C[C@H](CC(=O)O)C(=O)Nc1nc(-c2ccccc2Cl)cs1 [Compound 19, (R)-3-(4-(2-chlorophenyl)thiazol-2-ylcarbamoyl)-5-methylhexanoic acid]"
11,273,"O=C(O)C[C@@H](Cc1ccccc1)C(=O)Nc1nc(-c2ccccc2Cl)cs1 [Compound 2, (R)-3-benzyl-4-(4-(2-chlorophenyl)thiazol-2-ylamino)-4-oxobutanoic acid]"
12,260,"CN(C(=O)[C@@H](CC(=O)O)Cc1ccccc1)c1nc(-c2ccccc2Cl)c(Cl)s1 [Compound 21, (R)-3-benzyl-4-((5-chloro-4-(2-chlorophenyl)thiazol-2-yl)(methyl)amino)-4-oxobutanoic acid]"
13,249,"CCN(C(=O)[C@@H](CC(=O)O)Cc1ccccc1)c1nc(-c2ccccc2Cl)cs1 [Compound 96, (R)-3-benzyl-4-((4-(2-chlorophenyl)thiazol-2-yl)(ethyl)amino)-4-oxobutanoic acid]"
14,200,"CC(C)[C@H](CC(=O)O)C(=O)N(C)c1nc(-c2ccccc2Cl)cs1 [Compound 94, (S)-3-((4-(2-chlorophenyl)thiazol-2-yl)(methyl)carbamoyl)-4-methylpentanoic acid]"
15,113,"O=C(Nc1nc(-c2ccccc2Cl)cs1)[C@H]1CC=CC[C@H]1C(=O)O (relative stereo) [Compound 98, cis-6-(4-(2-chlorophenyl)thiazol-2-ylcarbamoyl)cyclohex-3-enecarboxylic acid]"
16,88,"CC(C)C[C@H](CC(=O)O)C(=O)N(C)c1nc(-c2ccccc2Cl)cs1 [Compound 90, (R)-3-((4-(2-chlorophenyl)thiazol-2-yl)(methyl)carbamoyl)-5-methylhexanoic acid]"
17,67,"CN(C(=O)[C@H]1CCCC[C@H]1C(=O)O)c1nc(-c2ccccc2Cl)cs1 (relative stereo) [Compound 101, cis-2-((4-(2-chlorophenyl)thiazol-2-yl)(methyl)carbamoyl)cyclohexanecarboxylic acid]"
18,60,"O=C(O)C[C@H](C(=O)Nc1nc(-c2ccccc2Cl)cs1)c1ccccc1 [Compound 9, (S)-4-(4-(2-chlorophenyl)thiazol-2-ylamino)-4-oxo-3-phenylbutanoic acid]"
19,37,"CN(C(=O)[C@@H](CC(=O)O)CC1CCCCC1)c1nc(-c2ccccc2Cl)cs1 [Compound 89, (R)-4-((4-(2-chlorophenyl)thiazol-2-yl)(methyl)amino)-3-(cyclohexylmethyl)-4-oxobutanoic acid]"
